Test results published in ChEMBL document CHEMBL4507291 (2021).

How the values were obtained:
[1] = tested on: Dual specificity mitogen-activated protein kinase kinase 1 (Homo sapiens), Q02750 [S218D,S222D]; assay: MAP2K1 (MEK1) S218D S222D Kinase screen; conditions: Compound concentration 1.0 uM
[2] = target: G protein-coupled receptor kinase 6 (Homo sapiens) (UniProt P43250); assay: GRK6 Kinase screen; conditions: Compound concentration 1.0 uM
[3] = target: Cannabinoid receptor 2 (Homo sapiens) (UniProt P34972)
Chain of Cannabinoid receptor 2 (Homo sapiens) (P34972 whole entry): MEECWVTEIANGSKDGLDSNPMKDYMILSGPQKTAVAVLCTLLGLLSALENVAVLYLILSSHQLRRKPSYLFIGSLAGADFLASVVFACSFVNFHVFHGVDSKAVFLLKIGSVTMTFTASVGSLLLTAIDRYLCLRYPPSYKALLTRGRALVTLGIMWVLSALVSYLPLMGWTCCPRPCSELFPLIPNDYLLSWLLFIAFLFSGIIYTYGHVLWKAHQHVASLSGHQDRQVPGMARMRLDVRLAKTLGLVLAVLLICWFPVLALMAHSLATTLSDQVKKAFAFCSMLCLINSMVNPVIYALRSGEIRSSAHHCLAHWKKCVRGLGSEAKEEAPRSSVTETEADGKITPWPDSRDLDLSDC

[4] = target: T1, NUAK family SNF1-like kinase 1 (Homo sapiens) (UniProt O60285); assay: NUAK1 (ARK5) Kinase screen; conditions: Compound concentration 1.0 uM
T1 sequence (whole entry): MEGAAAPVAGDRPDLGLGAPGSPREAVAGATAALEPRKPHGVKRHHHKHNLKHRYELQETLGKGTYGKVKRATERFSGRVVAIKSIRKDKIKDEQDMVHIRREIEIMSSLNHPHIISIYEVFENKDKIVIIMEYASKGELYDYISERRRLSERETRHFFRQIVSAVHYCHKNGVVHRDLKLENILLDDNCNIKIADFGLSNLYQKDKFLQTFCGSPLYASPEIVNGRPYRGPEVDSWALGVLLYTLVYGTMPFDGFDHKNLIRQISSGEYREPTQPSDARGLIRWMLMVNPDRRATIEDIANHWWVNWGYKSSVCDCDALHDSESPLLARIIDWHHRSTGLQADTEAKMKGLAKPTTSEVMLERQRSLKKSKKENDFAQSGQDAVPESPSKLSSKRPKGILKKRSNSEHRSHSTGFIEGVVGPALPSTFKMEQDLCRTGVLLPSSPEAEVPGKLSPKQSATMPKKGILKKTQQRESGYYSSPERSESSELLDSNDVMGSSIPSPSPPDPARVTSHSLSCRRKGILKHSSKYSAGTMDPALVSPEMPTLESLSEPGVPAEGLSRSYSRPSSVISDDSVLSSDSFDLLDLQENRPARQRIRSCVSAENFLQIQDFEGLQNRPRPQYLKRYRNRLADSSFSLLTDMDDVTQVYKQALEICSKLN

[5] = target: RAC-alpha serine/threonine-protein kinase (Homo sapiens) (UniProt P31749); assay: AKT1 (PKB alpha) Kinase screen; conditions: Compound concentration 1.0 uM
[6] = target: T2, Inhibitor of nuclear factor kappa-B kinase subunit epsilon (Homo sapiens) (UniProt Q14164); assay: IKBKE (IKK epsilon) Kinase screen; conditions: Compound concentration 1.0 uM
T2 sequence (whole entry): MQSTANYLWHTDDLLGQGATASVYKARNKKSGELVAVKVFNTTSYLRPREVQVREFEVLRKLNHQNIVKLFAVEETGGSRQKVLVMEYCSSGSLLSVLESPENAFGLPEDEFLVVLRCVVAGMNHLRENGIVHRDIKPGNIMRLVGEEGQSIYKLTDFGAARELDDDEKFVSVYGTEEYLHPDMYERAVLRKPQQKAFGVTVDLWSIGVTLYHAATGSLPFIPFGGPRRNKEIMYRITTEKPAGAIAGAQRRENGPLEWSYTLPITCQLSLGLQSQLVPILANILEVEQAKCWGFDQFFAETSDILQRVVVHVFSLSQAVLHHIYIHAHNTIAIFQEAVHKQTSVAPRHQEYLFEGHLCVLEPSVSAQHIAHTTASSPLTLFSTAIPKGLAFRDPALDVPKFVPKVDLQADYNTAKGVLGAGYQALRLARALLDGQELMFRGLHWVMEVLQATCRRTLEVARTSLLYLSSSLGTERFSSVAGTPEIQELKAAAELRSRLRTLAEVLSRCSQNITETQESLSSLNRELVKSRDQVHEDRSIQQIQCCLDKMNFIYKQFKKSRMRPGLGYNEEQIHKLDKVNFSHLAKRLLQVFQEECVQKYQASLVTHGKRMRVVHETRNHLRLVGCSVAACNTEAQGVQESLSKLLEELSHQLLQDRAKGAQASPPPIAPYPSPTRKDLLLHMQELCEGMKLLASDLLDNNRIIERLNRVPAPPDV

[7] = target: 5-hydroxytryptamine receptor 2B (Homo sapiens, UniProt P41595)
Chain of 5-hydroxytryptamine receptor 2B (P41595 whole entry): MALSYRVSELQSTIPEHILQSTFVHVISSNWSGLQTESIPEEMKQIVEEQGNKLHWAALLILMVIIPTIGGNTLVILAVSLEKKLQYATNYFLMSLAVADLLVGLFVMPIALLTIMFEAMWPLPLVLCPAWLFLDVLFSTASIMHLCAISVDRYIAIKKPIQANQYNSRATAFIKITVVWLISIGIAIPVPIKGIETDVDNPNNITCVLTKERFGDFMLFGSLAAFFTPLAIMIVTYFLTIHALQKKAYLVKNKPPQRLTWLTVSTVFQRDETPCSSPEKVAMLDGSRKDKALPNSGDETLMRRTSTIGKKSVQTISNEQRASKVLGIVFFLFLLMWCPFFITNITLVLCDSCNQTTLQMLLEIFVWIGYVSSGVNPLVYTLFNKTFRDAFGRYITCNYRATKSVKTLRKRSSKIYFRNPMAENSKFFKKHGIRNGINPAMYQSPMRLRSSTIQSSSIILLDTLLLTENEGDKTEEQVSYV

[8] = target: T3, Tyrosine-protein kinase Mer (Homo sapiens) (UniProt Q12866); assay: MERTK (cMER) Kinase screen; conditions: Compound concentration 1.0 uM
T3 sequence (whole entry): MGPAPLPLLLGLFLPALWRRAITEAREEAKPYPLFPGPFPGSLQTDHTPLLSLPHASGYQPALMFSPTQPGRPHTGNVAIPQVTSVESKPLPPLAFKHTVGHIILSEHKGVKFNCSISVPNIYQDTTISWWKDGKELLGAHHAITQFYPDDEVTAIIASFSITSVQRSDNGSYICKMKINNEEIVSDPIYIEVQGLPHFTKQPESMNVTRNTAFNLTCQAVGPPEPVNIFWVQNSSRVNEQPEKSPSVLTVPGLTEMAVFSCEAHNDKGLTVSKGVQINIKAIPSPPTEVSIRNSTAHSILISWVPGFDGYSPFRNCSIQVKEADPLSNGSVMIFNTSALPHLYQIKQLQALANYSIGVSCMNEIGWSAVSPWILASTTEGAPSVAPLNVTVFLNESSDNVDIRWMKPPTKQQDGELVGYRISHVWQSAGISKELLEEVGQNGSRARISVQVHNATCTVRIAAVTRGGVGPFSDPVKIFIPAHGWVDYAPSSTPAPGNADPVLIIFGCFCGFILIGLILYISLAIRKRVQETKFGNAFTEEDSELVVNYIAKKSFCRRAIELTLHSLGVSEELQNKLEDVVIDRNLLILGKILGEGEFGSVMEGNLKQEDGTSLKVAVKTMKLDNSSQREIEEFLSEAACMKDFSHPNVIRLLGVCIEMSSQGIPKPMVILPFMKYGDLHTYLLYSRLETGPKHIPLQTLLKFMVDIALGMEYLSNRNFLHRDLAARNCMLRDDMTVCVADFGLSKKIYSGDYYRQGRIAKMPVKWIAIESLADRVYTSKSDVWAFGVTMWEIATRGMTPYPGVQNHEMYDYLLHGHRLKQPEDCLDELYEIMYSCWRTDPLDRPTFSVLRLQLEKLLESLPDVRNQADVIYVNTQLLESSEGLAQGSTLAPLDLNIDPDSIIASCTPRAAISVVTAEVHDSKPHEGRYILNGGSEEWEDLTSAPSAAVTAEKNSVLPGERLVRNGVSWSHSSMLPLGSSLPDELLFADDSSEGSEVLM

[9] = target: Casein kinase I isoform gamma-1 (Homo sapiens) (UniProt Q9HCP0); assay: CSNK1G1 (CK1 gamma 1) Kinase screen; conditions: Compound concentration 1.0 uM
[10] = target: Mitogen-activated protein kinase kinase kinase 20 (Homo sapiens) (UniProt Q9NYL2); assay: ZAK Kinase screen; conditions: Compound concentration 1.0 uM
Chain of Mitogen-activated protein kinase kinase kinase 20 (Homo sapiens) (Q9NYL2 2-800 limits assumed): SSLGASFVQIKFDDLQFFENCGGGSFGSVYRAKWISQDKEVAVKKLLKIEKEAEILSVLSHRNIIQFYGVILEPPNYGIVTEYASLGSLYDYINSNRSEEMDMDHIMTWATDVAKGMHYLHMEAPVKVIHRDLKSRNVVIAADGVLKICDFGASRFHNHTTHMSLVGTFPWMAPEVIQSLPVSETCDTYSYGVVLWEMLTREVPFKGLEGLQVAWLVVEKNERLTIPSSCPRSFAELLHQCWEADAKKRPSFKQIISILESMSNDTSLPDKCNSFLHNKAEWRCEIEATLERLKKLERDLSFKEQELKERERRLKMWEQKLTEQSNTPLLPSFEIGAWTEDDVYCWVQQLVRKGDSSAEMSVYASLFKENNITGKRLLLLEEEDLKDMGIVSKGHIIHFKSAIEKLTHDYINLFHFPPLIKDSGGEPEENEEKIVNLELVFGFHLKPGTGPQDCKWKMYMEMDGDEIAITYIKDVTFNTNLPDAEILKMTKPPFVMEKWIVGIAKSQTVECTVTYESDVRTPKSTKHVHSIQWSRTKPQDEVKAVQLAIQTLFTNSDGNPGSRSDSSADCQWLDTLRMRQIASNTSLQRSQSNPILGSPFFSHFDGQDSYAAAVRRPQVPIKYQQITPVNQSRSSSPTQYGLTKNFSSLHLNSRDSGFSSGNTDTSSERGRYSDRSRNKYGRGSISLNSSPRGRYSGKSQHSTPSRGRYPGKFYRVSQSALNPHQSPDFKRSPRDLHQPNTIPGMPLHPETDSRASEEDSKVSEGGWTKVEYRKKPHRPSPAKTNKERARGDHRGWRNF

[11] = target: Phosphatidylinositol 4-kinase alpha (Homo sapiens) (UniProt P42356); assay: PI4KA (PI4K alpha) Kinase screen; conditions: Compound concentration 1.0 uM
[12] = target: Leucine-rich repeat serine/threonine-protein kinase 2 (Homo sapiens, UniProt Q5S007); assay: Cellular assay monitoring dephosphorylation of pSer935 LRRK2
Chain of Leucine-rich repeat serine/threonine-protein kinase 2 (Q5S007 whole entry): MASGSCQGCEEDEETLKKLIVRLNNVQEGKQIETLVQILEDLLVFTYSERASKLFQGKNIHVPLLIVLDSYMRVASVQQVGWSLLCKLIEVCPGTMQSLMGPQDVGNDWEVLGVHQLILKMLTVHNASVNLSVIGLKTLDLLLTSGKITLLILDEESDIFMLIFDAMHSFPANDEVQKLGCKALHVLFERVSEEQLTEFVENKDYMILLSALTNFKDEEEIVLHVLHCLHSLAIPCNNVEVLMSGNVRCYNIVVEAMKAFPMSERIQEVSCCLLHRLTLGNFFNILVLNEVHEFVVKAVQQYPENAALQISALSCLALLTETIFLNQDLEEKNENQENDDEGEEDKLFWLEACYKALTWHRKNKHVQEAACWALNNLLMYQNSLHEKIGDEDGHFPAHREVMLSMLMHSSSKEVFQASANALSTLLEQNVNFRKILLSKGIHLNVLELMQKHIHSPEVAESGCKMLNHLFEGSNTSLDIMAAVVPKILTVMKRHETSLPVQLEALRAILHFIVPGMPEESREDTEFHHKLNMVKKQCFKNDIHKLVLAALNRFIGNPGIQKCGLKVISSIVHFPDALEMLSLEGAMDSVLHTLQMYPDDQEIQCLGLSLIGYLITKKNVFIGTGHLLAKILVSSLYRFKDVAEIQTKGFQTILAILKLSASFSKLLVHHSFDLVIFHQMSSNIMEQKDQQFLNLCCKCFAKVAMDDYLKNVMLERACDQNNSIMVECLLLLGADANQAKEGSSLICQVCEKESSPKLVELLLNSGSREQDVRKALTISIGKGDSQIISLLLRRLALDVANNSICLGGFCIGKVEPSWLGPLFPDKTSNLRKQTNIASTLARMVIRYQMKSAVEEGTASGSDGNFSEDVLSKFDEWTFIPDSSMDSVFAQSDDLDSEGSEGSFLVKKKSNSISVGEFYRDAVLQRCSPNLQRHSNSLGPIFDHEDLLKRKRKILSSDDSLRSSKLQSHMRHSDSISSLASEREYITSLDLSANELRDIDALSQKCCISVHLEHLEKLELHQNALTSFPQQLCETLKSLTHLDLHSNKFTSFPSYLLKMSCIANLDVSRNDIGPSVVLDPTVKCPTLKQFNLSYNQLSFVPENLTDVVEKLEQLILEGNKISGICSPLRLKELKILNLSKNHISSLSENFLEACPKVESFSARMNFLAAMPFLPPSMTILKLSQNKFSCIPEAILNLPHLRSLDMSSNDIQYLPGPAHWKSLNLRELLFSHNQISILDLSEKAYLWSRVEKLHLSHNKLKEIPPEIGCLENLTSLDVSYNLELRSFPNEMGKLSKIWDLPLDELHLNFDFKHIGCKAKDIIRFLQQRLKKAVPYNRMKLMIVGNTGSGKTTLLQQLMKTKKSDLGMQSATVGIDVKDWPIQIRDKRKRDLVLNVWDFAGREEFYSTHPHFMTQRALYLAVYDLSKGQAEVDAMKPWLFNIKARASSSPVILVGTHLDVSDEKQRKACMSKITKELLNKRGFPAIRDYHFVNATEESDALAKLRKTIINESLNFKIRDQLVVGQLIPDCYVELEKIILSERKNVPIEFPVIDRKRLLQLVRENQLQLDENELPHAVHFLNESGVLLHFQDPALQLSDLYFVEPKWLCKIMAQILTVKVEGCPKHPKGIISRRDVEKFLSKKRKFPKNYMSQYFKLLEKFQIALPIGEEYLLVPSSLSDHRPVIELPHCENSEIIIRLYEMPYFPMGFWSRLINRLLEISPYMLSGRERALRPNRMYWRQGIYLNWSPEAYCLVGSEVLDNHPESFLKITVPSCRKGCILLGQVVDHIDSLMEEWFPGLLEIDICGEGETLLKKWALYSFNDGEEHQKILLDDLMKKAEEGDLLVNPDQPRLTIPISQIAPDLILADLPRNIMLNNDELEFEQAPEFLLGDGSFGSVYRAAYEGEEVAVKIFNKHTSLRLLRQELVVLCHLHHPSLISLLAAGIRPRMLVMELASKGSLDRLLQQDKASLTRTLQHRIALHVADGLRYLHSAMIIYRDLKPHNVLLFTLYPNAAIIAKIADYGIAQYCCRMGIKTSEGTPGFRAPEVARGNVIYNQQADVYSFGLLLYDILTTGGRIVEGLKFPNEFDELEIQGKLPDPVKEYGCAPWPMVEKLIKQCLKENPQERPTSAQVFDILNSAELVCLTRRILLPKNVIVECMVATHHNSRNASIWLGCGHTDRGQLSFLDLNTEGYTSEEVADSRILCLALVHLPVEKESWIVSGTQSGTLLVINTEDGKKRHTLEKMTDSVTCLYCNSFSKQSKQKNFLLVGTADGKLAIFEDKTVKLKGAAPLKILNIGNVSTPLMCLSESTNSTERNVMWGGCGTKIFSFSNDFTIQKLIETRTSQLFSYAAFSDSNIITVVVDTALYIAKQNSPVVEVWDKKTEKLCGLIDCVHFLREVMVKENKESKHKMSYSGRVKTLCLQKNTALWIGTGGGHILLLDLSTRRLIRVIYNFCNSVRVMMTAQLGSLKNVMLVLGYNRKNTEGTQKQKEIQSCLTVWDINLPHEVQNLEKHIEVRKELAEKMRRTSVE

Chain of G protein-coupled receptor kinase 6 (Homo sapiens) (P43250 whole entry, looked up): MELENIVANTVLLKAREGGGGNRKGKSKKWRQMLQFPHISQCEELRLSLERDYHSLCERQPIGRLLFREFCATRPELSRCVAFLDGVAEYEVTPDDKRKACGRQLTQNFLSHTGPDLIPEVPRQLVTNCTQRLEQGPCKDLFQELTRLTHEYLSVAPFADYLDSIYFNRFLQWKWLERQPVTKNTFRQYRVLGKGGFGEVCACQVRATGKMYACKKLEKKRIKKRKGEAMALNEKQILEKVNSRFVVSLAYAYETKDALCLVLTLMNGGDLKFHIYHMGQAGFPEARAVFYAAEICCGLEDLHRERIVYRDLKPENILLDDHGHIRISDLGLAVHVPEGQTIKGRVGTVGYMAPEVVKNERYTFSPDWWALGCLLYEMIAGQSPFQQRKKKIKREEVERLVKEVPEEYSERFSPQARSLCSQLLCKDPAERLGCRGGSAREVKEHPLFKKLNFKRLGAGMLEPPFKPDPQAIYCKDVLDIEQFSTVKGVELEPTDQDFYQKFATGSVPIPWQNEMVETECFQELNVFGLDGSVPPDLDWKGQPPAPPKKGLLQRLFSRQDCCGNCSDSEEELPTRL

Row | SMILES | inhibition [1] | inhibition [2] | inhibition ([3]; Compound concentration 3.0 uM) | inhibition ([3]; Compound concentration 10.0 uM) | inhibition [4] | inhibition [5] | inhibition [6] | inhibition ([7]; Compound concentration 0.01 uM) | inhibition ([7]; Compound concentration 0.1 uM) | inhibition ([7]; Compound concentration 1.0 uM) | inhibition ([7]; Compound concentration 10.0 uM) | inhibition [8] | inhibition [9] | inhibition [10] | inhibition [11] | IC50 [12]
1 | C[C@@H]1CN(c2cc(-c3n[nH]c4ccc(OC5(C)CC5)cc34)ncn2)C[C@H](C)O1 [MLi-2] | 6.92% | 6.63% | 2% | 2% | 14.5% | 6.75% | 1.77% | -7% | 8% | 44% | 95% | 4.76% | -1.82% | 4.32% | 5.35% | 
2 | C[C@@H]1CN(c2cc(-c3nn(C)c4ccc(OC5(C)CC5)cc34)ncn2)C[C@H](C)O1 [MLi-2-NC] |  |  |  |  |  |  |  |  |  |  |  |  |  |  |  | 5.44 µM (not active)
